Experimental data reported in patent US9115176B2, “Compounds, use thereof in cosmetic and cosmeceutic applications, and compositions comprising same” (Lucas Meyer Cosmetics Canada Inc., priority 2007, dated 2015).
* marks the point of attachment. Hexanoyl = CCCCCC(=O)*

Experiments:
[1] = tested on: Normal human dermal fibroblasts; assay: Neosynthesis of laminin in normal human dermal fibroblasts (E.I.A. kit, normalised to Bradford protein); assay type: cell-based; conditions: for Laminins (ng/μg proteins) % increase: 48 hours incubation, untreated control = 100.0%
Procedure: Normal human dermal fibroblasts were incubated for 48 hours in absence or presence of Transforming Growth Factor (TGF)-β at 50 ng/ml or of peptide I at two concentrations, namely 10^−6M and 10^−7M. At the end of the incubation period, laminins were quantified with the E.I.A. Enzyme Immuno Assay kit. Proteins contained in the cell lysate were also quantified by spectrocolorimetry according to the Bradford method. TGF-β and peptide I were tested in dose-response on the fibroblasts.
The data presented in Table I below represent the relative increase in laminin synthesis in a human dermal fibroblast culture medium in monolayers in the presence of peptide I, or TGF-β, as compared to untreated cells (control).

laminin-5 = assay: Synthesis of laminin-5 in human skin fragments treated with dermal corticosteroid (immunohistochemistry, semi-quantitative score); assay type: cell-based
Procedure: (§1) Fragments of normal human skin were treated or not in the presence of a dermal corticosteroid at 0.05% w/v or peptide I at a concentration of 10^−7M. The skin samples were then frozen at day 3 for an immunohistochemical analysis of laminin-5. The immunodetection was performed with a 3 coats indirect immunoperoxidase method (BC Peroxidase kit, Vector laboratories) using a primary antibody specific to laminin-5.

crow's feet = assay: In vivo anti-wrinkle activity on crow's feet (photographs, silicone replicas, fringe projection); design: species or system human; conditions: 5 ppm in Table VI formulation, topical twice daily, after 28 and 56 days, versus placebo
Procedure: Peptide I was tested in the formulation described in Table VI below versus its placebo on 30 subjects (+10%) selected according to the inclusion/non inclusion criteria. [table] The study lasted 56 days following the first application. Volunteers applied the product twice daily on a randomised crow's foot of the temple. The study was a simple blind test, comparing the results obtained at one treated area following application of the composition comprising peptide I with those obtained at another treated area with the placebo. The evaluation of the efficacy of the formulation comprising peptide I was performed using: (a) illustrative digital photographs of the crow's feet; and (b) Silicone rubber replicas of the crow's feet (analysis of the wrinkles and of the skin network by fringe projection). In vitro fringe projection—Topometry—Wrinkles. […] All the silicone rubber replicas were analysed by fringe projection to observe the cutaneous relief. The following parameters were measured: (a) SPa: Average roughness; (b) SPq: Average dispersal of the variations of the relief; (c) SPt: Maximum amplitude of the relief and (d) SDev: Developed Surface. […] All the replicas were analysed by fringe projection to observe the skin network analysis. The following parameters were measured: (a) SRa: Average roughness (mm); and (b) SRq: Average with regards to the average quadratic (mm).

collagen VII = assay: Synthesis of collagen VII in human skin fragments treated with dermal corticosteroid (immunohistochemistry, semi-quantitative score); assay type: cell-based
Procedure: as §1, with “w/v and” for “w/v or”, “10^−7M. Dermal corticosteroid are known to alter cell metabolism.” for “10^−7M.”, “of collagen VII.” for “of laminin-5.”, “method (ABC” for “method (BC”, “to collagen VII.” for “to laminin-5.”

[2] = skin + corticosteroids 0.05% w/v + peptide I 10^−7M, day 3

| Substance | Laminins (ng/μg proteins) % increase ([1]; 50 ng/ml) | Laminin-5 score, relative change (laminin-5; [2]) | Laminin-5 labelling score (laminin-5; skin + corticosteroids 0.05% w/v + peptide I 10^−7M, day 3, control skin 2.1 ± 1.3) | Effect on synthesis of laminin-5 in a human skin model (in words) (laminin-5; summary of Table V) | Crow's feet skin network roughness (in words) (crow's feet) | Reduction of the wrinkles (crow's feet roughness, in words) (crow's feet) | Collagen VII score, relative change (collagen VII; [2]) | Collagen VII labelling score (collagen VII; skin + corticosteroids 0.05% w/v + peptide I 10^−7M, day 3, control skin 1.9 ± 0.8) | Effect on synthesis of collagen VII in a human skin model (in words) (collagen VII; summary of Table III) | Laminins (ng/μg proteins) % increase ([1]; 10^−6M) | Laminins (ng/μg proteins) % increase ([1]; 10^−7M) | Effect on laminin synthesis in human dermal fibroblast cells (in words) ([1]; summary of Table I) |
| --- | --- | --- | --- | --- | --- | --- | --- | --- | --- | --- | --- | --- |
| TGF-β [reference compound] | 109.9% |  |  |  |  |  |  |  |  |  |  |  |
| CH3—(CH2)4—CO-Lys-Gly-His-Lys-NH2 (Hexanoyl-KGHK-NH2; SMILES CCCCCC(=O)N[C@@H](CCCCN)C(=O)NCC(=O)N[C@@H](Cc1c[nH]cn1)C(=O)N[C@@H](CCCCN)C(N)=O) [Peptide I] |  | +49% | 2.2 ± 0.8 | increases the synthesis of laminin-5 | reduction of the crow's feet skin network roughness | potent efficacy | +34% | 2.25 ± 0.2 | increases the synthesis of collagen VII | 125.8% | 125.9% | increases laminin synthesis |
